Molecular target: Cathepsin S (Homo sapiens, UniProt P25774)
Assay: Inhibition Assay
Description: 5 μL of a human cathepsin S enzyme (R&D1183-CY-010) was added to a 96-well plate so as to be 20 ng/well.

Chain of Cathepsin S (P25774 whole entry): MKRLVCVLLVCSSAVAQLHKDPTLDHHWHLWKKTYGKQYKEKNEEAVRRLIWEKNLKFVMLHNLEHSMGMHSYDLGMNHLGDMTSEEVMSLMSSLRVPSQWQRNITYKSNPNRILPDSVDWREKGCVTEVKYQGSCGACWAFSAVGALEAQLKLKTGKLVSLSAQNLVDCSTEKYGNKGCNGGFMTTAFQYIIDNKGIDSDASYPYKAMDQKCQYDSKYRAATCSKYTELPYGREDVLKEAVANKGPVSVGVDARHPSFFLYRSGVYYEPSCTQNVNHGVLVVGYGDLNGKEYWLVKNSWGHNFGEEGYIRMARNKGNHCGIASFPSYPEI

IC50: 1.6 nM
SMILES: CN(C)C(=O)CN1CCC(CCOc2ccc(-c3nc(C#N)nc4c3ncn4C)cc2C(F)(F)F)CC1 [US9328118, 72]

Reference: BindingDB's records for patent US9328118 (Astellas Pharma Inc, 2016)
